Assay results taken from US20260070887A1 (Shenzhen Zhongge Biological Technology Co., Ltd., priority 2022, published 2026).
Read-outs that look alike come from different tables or passages of the source.

Experiments:
KIF18A = KIF18A (Homo sapiens (Human), UniProt Q8NI77); test: KIF18A ATPase activity under tubulin stimulation (ADP-Glo assay); assay type: biochemical; settings: KIF18A 30 nM, ATP 150 μM, pig microtubules
Protocol: This experiment assesses the inhibitory effect of the compounds of the present disclosure on the KIF18A target according to the IC50 values by measuring the KIF18A ATPase activity under tubulin stimulation with the presence of the compounds.
• 1. Preparation of 30 mL of reaction buffer: • (1) 450 μL 1M Tris-HCl (pH=7.5)+300 μL 1M MgCl2+30 μL 10% Pluronic F-68 (ThermoFisher, 24040032-100 ml); • (2) adjusting pH to 7.5, and adding water to adjust the volume to 30 mL. • 2. Preparation of a 5 mg/mL pig microtubule (Microtubules; MT) (Cytoskeleton Inc, MT002) stock solution: • (1) 10 mL PM buffer=150 μL 1 M PIPES (pH 7.0)+20 μL 0.5 mM MgCl2+100 μL 2 mM Taxol (Cytoskeleton Inc, TXD01)+9730 μL water. • (2) MT ([…]): Adding 100 μL PM buffer to prepare a 5 mg/mL stock solution. Keeping the MT (Cytoskeleton Inc, MT002) at room temperature for 10-15 minutes, gently mixing and storing same at −80° C. • 3. Preparation of 2 mL of kinase buffer: 2 mL reaction buffer+1 μL 2 mM Taxol (Cytoskeleton Inc, TXD01)+12 μL 5 mg/mL MT (Cytoskeleton Inc, MT002). • 4. Preparation of 2×KIF18A (30 nM) (ChemPartner, CPB-P22-31645) working solution: 2.4 μL 10 μM KIF18A (ChemPartner, CPB-P22-31645)+800 μL 1× kinase buffer. • 5. Preparation of 2×ATP (150 μM) (Promega, G9101) working solution: 12 μL 10 mM ATP+800 μL 1× kinase buffer. • 6. 25 nL of compound was transferred to a 384-well plate using Echo650. • 7. 2.5 μL of 2×KIF18A from Step 4 (final concentration of 30 nM) was added to the 384-well plate and the plate was incubated at 25° C. for 15 minutes. • 8. 2.5 μL of 2×ATP from Step 5 (final concentration of 150 μM) was added to the 384-well plate and the plate was incubated at 25° C. for 15 minutes. • 9. 5 μL ADP-Glo™ Reagent (Promega, G9101) was added to the 384-well plate and the plate was incubated at 25° C. for 40 minutes. • 10. 10 μL of kinase detection reagent (Promega, G9101) was added to the 384-well plate and the plate was incubated at 25° C. for 40 minutes. • 11. Luminescence values were measured using the EnVision Xcite Multilabel Reader (PerkinElmer, 2105-0020).

OVCAR-3 cells = test: OVCAR-3 cell proliferation (Cell Titer-Glo, 10 days); assay type: cell-based, human
Protocol: The inhibitory effect on the KIF18A target by the compounds of the present disclosure was evaluated by testing the inhibitory effect on proliferation of OVCAR-3 cells by the compounds of the present disclosure.
The following method was used to determine the effect of the compounds of the present disclosure on the proliferation of human ovarian cancer cells Ovcar-3 (HTB-161, ATCC). Cells were cultured in RPMI-1640 complete medium containing 20% fetal bovine serum, 0.01 mg/mL bovine insulin, 100 U penicillin, and 100 μg/mL streptomycin. The Promega kit Cell Titer-Glo (Cat. No. G7572) was used in this method for test.
For specific steps, reference was made to the kit instructions, and the procedure was outlined below: Test compounds were dissolved in DMSO to prepare a 10 mM stock solution, which was diluted at the predetermined test concentrations, and the test compounds at different concentrations were added to a 384-well cell test plate using ECHO. In the plate pre-added with the test compounds, 400 OVCAR-3 cells in the logarithmic growth phase were seeded per well, ensuring the final concentration of the test compounds in the reaction system ranged between 0.12 nM and 10 μM. The co-culture was maintained in a cell culture incubator for 10 days. Before testing, the cell culture plate was equilibrated for 10 minutes at room temperature, 25 μL of Cell Titer-Glo was added to each well, and the mixture was shaken and mixed well and let stand for 5 minutes. The luminescence values for samples in various wells were read using a microplate reader in Luminescence mode.
The percentage of inhibition of cell proliferation by the test compound at each concentration was calculated by comparing with the values of the control group (0.1% DMSO). The IC50 values of the compounds were obtained by concentration-inhibition rate nonlinear regression analysis of the test compounds using GraphPad Prism 9.

KIF18A, sequence (Q8NI77 whole entry): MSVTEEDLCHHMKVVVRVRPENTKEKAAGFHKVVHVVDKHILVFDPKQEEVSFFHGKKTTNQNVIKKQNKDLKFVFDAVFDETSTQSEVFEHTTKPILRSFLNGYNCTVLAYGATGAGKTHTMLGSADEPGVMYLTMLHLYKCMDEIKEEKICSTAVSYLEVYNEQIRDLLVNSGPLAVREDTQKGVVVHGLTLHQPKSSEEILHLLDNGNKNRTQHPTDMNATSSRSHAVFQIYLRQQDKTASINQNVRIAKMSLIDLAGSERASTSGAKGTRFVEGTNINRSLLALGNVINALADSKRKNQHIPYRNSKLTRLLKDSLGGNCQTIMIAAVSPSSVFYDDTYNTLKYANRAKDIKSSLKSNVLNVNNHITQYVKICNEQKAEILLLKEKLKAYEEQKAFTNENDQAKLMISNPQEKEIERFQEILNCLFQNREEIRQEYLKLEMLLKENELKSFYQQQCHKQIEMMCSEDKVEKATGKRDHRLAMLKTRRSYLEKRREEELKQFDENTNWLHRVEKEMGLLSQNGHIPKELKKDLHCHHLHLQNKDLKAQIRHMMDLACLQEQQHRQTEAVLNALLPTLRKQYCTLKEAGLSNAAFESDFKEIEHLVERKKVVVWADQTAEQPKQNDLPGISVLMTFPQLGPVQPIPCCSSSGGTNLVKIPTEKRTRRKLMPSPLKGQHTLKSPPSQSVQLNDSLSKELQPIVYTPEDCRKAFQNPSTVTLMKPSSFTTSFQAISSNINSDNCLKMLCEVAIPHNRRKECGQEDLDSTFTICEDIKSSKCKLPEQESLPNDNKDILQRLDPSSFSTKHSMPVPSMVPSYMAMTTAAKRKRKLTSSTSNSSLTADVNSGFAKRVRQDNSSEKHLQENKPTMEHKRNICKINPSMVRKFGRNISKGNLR
KIF18A, sequence (P02550 whole entry partner): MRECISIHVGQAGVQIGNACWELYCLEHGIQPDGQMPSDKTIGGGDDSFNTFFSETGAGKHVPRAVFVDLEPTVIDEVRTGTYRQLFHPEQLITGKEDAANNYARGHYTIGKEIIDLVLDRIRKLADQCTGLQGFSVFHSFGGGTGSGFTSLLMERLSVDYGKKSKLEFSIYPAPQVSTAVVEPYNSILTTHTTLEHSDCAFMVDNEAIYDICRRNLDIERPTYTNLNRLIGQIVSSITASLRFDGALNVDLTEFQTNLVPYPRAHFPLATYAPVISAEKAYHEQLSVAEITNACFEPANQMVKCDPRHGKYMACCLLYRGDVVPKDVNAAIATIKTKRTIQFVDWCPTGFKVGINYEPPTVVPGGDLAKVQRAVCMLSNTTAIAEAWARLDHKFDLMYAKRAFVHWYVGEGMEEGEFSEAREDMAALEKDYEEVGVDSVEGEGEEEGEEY
KIF18A, sequence (P02554 whole entry partner): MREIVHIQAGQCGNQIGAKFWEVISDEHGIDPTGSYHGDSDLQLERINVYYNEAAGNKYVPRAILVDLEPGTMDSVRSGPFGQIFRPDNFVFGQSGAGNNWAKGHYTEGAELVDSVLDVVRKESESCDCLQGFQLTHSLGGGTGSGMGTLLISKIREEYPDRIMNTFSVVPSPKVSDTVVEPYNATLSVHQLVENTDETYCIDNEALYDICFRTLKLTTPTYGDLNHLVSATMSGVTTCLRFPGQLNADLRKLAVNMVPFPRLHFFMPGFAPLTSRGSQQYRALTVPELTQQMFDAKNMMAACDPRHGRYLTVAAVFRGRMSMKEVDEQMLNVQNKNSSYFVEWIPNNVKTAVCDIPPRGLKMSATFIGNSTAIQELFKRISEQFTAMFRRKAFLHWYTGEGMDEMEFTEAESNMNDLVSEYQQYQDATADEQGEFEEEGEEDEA

IC50 (OVCAR-3 cells; Homo sapiens, OVCAR-3, 240 h) [µM]	Compound	IC50 (KIF18A) [µM]	IC50 (OVCAR-3 cells) [µM]
0.5 to 5	CC(C)(O)Cn1ccc2c(NC(=O)c3ccc(NS(=O)(=O)CCO)cc3N3CCC4(CC3)CC4)cccc21 [Example 279, N-(1-(2-hydroxy-2-methylpropyl)-1H-indol-4-yl)-4-((2-hydroxyethyl)sulfonamido)-2-(6-azaspiro[2.5]oct-6-yl)benzamide]	0.05 to 0.5	–
–	COc1ccc(C(=O)Nc2ccc(NS(=O)(=O)CCO)cc2N2CCC3(CC2)CC3)c2cc3n(c12)CC(C)(C)OC3 [Example 565]	0.05 to 0.5	≤ 0.05
0.05 to 0.5	O=C(Nc1cc(F)cc2c1nc1n2CCOC1)c1ccc(NS(=O)(=O)CCO)cc1N1CCC(=C(F)F)CC1 [Example 369, 2-(4-(difluoromethylene)piperidin-1-yl)-N-(7-fluoro-3,4-dihydro-1H-benzo[4,5]imidazo[2,1-c][1,4]oxazin-9-yl)-4-((2-hydroxyethyl)sulfonamido)benzamide]	≤ 0.05	–
0.05 to 0.5	O=C(Nc1ccnc2c1cc1n2CCOC1)c1ccc(NS(=O)(=O)CCO)cc1N1CCC(=C(F)F)CC1 [Compound 401, 2-(4-(difluoromethylene)piperidin-1-yl)-N-(8,9-dihydro-6H-pyrido[3′,2′:4,5]pyrrolo[2,1-c][1,4]oxazin-4-yl)-4-((2-hydroxyethyl)sulfonamido)benzamide]	≤ 0.05	–
≤ 0.05	COc1ccc(NC(=O)c2ccc(NS(=O)(=O)CCO)cc2N2CCC(=C(F)F)CC2)c2nc3n(c12)CC(C)(C)OC3 [Example 489]	0.05 to 0.5	–
–	CC1Cn2c(nc3c(NC(=O)c4ccc(NS(=O)(=O)CCO)cc4N4CCC5(CC4)CC5)ccc(F)c32)C(C)O1 (stereo not drawn) [Example 445, 2-(6-azaspiro[2.5]oct-6-yl)-N-(6-fluoro-1,3-dimethyl-3,4-dihydro-1H-benzo[4,5]imidazo[2,1-c][1,4]oxazin-9-yl)-4-{[(2-hydroxyethyl)sulfonamide]}benzamide]	≤ 0.05	≤ 0.05
–	N-(1-(cyclopropylmethyl)-1H-indol-4-yl)-4-methoxy-2-(6-azaspiro[2.5]octan-6-yl)benzamide [Example 127]	≤ 0.05	≤ 0.05
–	COc1ccc(NC(=O)c2ccc(NS(=O)(=O)CCO)cc2N2CCC3(CC2)CC3)c2cc3n(c12)CC(C)OC3C (stereo not drawn) [Example 449]	0.05 to 0.5	≤ 0.05
≤ 0.05	O=C(Nc1cc(F)cc2c1cc1n2CCOC1)c1ccc(NS(=O)(=O)CCO)cc1N1CCC2(CC1)CC2 [Example 366, N-(7-fluoro-3,4-dihydro-1H-[1,4]oxazino[4,3-a]indol-9-yl)-4-((2-hydroxyethyl)sulfonamido)-2-(6-azaspiro[2.5]oct-6-yl)benzamide]	≤ 0.05	–
0.5 to 5	O=C(Nc1ccc(F)c2c1OCCN2CC1CC1)c1ccc(NS(=O)(=O)CCO)cc1N1CCC2(CC1)CC2 [Example 294, N-(4-(cyclopropylmethyl)-5-fluoro-3,4-dihydro-2H-benzo[b][1,4]oxazin-8-yl)-4-((2-hydroxyethyl)sulfonamido)-2-(6-azaspiro[2.5]oct-6-yl)benzamide]	≤ 0.05	–

Compound	IC50 (OVCAR-3 cells; Homo sapiens, OVCAR-3, 240 h) [µM]	IC50 (KIF18A) [µM]	IC50 (OVCAR-3 cells) [µM]
CC1Cn2c(cc3c(NC(=O)c4ccc(NS(=O)(=O)CCO)cc4N4CCC5(CC4)CC5)cccc32)C(C)O1 (single isomer, unassigned) [Compound 312-P1, N-(1,3-dimethyl-3,4-dihydro-1H-[1,4]oxazino[4,3-a]indol-9-yl)-4-((2-hydroxyethyl)sulfonamido)-2-(6-azaspiro[2.5]oct-6-yl)benzamide]	0.05 to 0.5	0.05 to 0.5	–
O=C(Nc1cccc2c1cc1n2CCC(F)(F)C1O)c1ccc(NS(=O)(=O)CCO)cc1N1CCC2(CC1)CC2 (stereo not drawn) [Compound 384, N-(8,8-difluoro-9-hydroxy-6,7,8,9-tetrahydropyridino[1,2-a]indol-1-yl)-4-((2-hydroxyethyl)sulfonamido)-2-(6-azaspiro[2.5]oct-6-yl)benzamide]	≤ 0.05	0.05 to 0.5	–
